Assay results: PubChem BioAssay AID330 (DTP/NCI, 2004)
“And” between values parts separate entries of the source, which are not always exact repeats. Equal entries are not always repeated. Inconclusive results and toxic doses are left out. How the source made its calls: active means survival T/C of 150% or more; inactive means T/C below 125% in these data.

System: P388 leukemia ip, CD2F1 mice, survival T/C
Test: NCI In Vivo Anticancer Drug Screen. Data for tumor model P388 Leukemia (intraperitoneal) in CD2F1 (CDF1) mice
Conditions: endpoint: median survival time, higher = longer survival
Procedure: The antitumor activity of compounds was measured in mice bearing transplantable tumors. Survival or tumor size were measured and the results are expressed as the measurement made in the treated group (T) divided by the measurement made in the vehicle treated control group (C). The tumor model used in this assay is P388 Leukemia (intraperitoneal) in CD2F1 (CDF1) mice

[1] = dose: 50.0 mg/kg/injection, schedule: Q01DX009 (ip), vehicle: Klucel (hydroxypropylcellulose) (HPC)
[2] = dose: 100.0 mg/kg/injection, schedule: Q01DX009 (ip), vehicle: Klucel (hydroxypropylcellulose) (HPC)
[3] = dose: 200.0 mg/kg/injection, schedule: Q01DX009 (ip), vehicle: Klucel (hydroxypropylcellulose) (HPC)
[4] = dose: 50.0 mg/kg/injection, schedule: Q01DX005 (ip), vehicle: Klucel (hydroxypropylcellulose) (HPC)
[5] = dose: 100.0 mg/kg/injection, schedule: Q01DX005 (ip), vehicle: Klucel (hydroxypropylcellulose) (HPC)
[6] = dose: 200.0 mg/kg/injection, schedule: Q01DX005 (ip), vehicle: Klucel (hydroxypropylcellulose) (HPC)
[7] = dose: 50.0 mg/kg/injection, schedule: Q01DX005 (ip), vehicle: saline with Tween-80
[8] = dose: 100.0 mg/kg/injection, schedule: Q01DX005 (ip), vehicle: saline with Tween-80
[9] = dose: 200.0 mg/kg/injection, schedule: Q01DX005 (ip), vehicle: saline with Tween-80
[10] = dose: 50.0 mg/kg/injection, schedule: Q01DX009 (ip), vehicle: saline with Tween-80
[11] = dose: 100.0 mg/kg/injection, schedule: Q01DX009 (ip), vehicle: saline with Tween-80
[12] = dose: 200.0 mg/kg/injection, schedule: Q01DX009 (ip), vehicle: saline with Tween-80

Measured: T/C

O=C(Nc1ccccc1[N+](=O)[O-])C1C(=O)C(=O)N(c2ccccc2[N+](=O)[O-])C1=O (configuration not stated)
inactive: [1] 99 % of control | [2] 108 % of control | [3] 99 % of control

Oc1cc2c(cc1C(c1ccc(F)cc1)N1CCOCC1)OCO2 (configuration not stated)
inactive: dose: 60.0 mg/kg/injection, schedule: Q01DX005 (ip), vehicle: saline with Tween-80 117 % of control | dose: 120.0 mg/kg/injection, schedule: Q01DX005 (ip), vehicle: saline with Tween-80 102 % of control | dose: 240.0 mg/kg/injection, schedule: Q01DX005 (ip), vehicle: saline with Tween-80 108 % of control

CC1=C(C)Cn2c(=O)c3cc4ccccc4cc3c(=O)n2C1
inactive: [1] 90 % of control | [2] 90 % of control

O=[N+]([O-])c1ccc(-c2nc3ccncc3[nH]2)cc1
inactive: dose: 50.0 mg/kg/injection, schedule: Q01DX009 (ip), vehicle: saline 107 % of control | dose: 100.0 mg/kg/injection, schedule: Q01DX009 (ip), vehicle: saline 104 % of control | dose: 200.0 mg/kg/injection, schedule: Q01DX009 (ip), vehicle: saline 93 % of control

O=C(O)CCCC(O)(O)C(=O)O
inactive: [4] 108 % of control | [5] 94 % of control | [6] 96 % of control

CC(C)NC(=O)c1ccc(CBr)cc1
inactive: dose: 1.56 mg/kg/injection, schedule: Q01DX009 (ip), vehicle: other 95 % of control | dose: 3.13 mg/kg/injection, schedule: Q01DX009 (ip), vehicle: other 95 % of control | dose: 6.25 mg/kg/injection, schedule: Q01DX009 (ip), vehicle: other 98 % of control | dose: 12.5 mg/kg/injection, schedule: Q01DX009 (ip), vehicle: other 93 % of control | dose: 25.0 mg/kg/injection, schedule: Q01DX009 (ip), vehicle: other 112 % of control | dose: 50.0 mg/kg/injection, schedule: Q01DX009 (ip), vehicle: other 99 % of control

CC(C)(C)OC(=O)NC(CCC(=O)OCc1ccccc1)C(=O)ON1C(=O)CCC1=O (configuration not stated)
inactive: [7] 104 % of control | [8] 114 % of control | [9] 102 % of control

Cn1cc(C#N)c(=O)[nH]c1=O
inactive: [4] 101 % of control | [5] 98 % of control | [6] 104 % of control

CCCC(=O)OC1C=C2N3C(=O)C4CC56C(=CC(OC(C)=O)C7OC75)N4C(=O)C3CC26C2OC12 (configuration not stated)
inactive: dose: 0.13 mg/kg/injection, schedule: Q01DX005 (ip), vehicle: Klucel (hydroxypropylcellulose) (HPC) 100 % of control | dose: 0.25 mg/kg/injection, schedule: Q01DX005 (ip), vehicle: Klucel (hydroxypropylcellulose) (HPC) 100 % of control | dose: 0.5 mg/kg/injection, schedule: Q01DX005 (ip), vehicle: Klucel (hydroxypropylcellulose) (HPC) 100 % of control | dose: 1.0 mg/kg/injection, schedule: Q01DX005 (ip), vehicle: Klucel (hydroxypropylcellulose) (HPC) 107 % of control | dose: 2.0 mg/kg/injection, schedule: Q01DX005 (ip), vehicle: Klucel (hydroxypropylcellulose) (HPC) 99 % of control and 103 % of control | dose: 4.0 mg/kg/injection, schedule: Q01DX005 (ip), vehicle: Klucel (hydroxypropylcellulose) (HPC) 96 % of control

N#Cc1ccc(N=Cc2ccc(C=Nc3ccc(C#N)c(C#N)c3)cc2)cc1C#N
inactive: dose: 12.5 mg/kg/injection, schedule: Q01DX009 (ip), vehicle: saline with Tween-80 93 % of control | dose: 25.0 mg/kg/injection, schedule: Q01DX009 (ip), vehicle: saline with Tween-80 104 % of control | [10] 88 % of control | [11] 87 % of control | [12] 97 % of control

CC1(C)NC(=O)[C@]2(C[C@@H](OC(=O)c3ccccc3)C=C2C=O)O1
inactive: dose: 25.0 mg/kg/injection, schedule: Q01DX005 (ip), vehicle: saline with Tween-80 109 % of control | [7] 96 % of control

Cc1cccc(N=Nc2c(-c3ccccc3)nn(C(N)=S)c2-c2ccccc2)c1C
inactive: dose: 73.9 mg/kg/injection, schedule: Q04DX002 (ip), vehicle: Klucel (hydroxypropylcellulose) (HPC) 96 % of control | dose: 147.0 mg/kg/injection, schedule: Q04DX002 (ip), vehicle: Klucel (hydroxypropylcellulose) (HPC) 96 % of control | dose: 295.0 mg/kg/injection, schedule: Q04DX002 (ip), vehicle: Klucel (hydroxypropylcellulose) (HPC) 100 % of control

CCC1(O)CC2C3C(C(=O)OC)=C4Nc5ccccc5C45CCN(C31)C25 (configuration not stated)
inactive: dose: 1.0 mg/kg/injection, schedule: Q01DX001 (ip), vehicle: water 100 % of control | dose: 2.0 mg/kg/injection, schedule: Q01DX001 (ip), vehicle: water 100 % of control | dose: 4.0 mg/kg/injection, schedule: Q01DX001 (ip), vehicle: water 101 % of control | dose: 8.0 mg/kg/injection, schedule: Q01DX001 (ip), vehicle: water 92 % of control | dose: 16.0 mg/kg/injection, schedule: Q01DX001 (ip), vehicle: water 95 % of control | dose: 32.0 mg/kg/injection, schedule: Q01DX001 (ip), vehicle: water 99 % of control

O=C(O)CC1SC2(C(=O)N(Cc3ccccc3)c3ccccc32)N(c2ccccc2)C1=O (configuration not stated)
inactive: [7] 89 % of control | [8] 95 % of control | [9] 89 % of control

C=C1C(=O)OC2/C=C(\C=O)C3OC3C3OC3(C)CC(OC(=O)/C(=C/C)CO)C12 (configuration not stated)
inactive: dose: 3.12 mg/kg/injection, schedule: Q01DX005 (ip), vehicle: Klucel (hydroxypropylcellulose) (HPC) 100 % of control | dose: 6.25 mg/kg/injection, schedule: Q01DX005 (ip), vehicle: Klucel (hydroxypropylcellulose) (HPC) 110 % of control | dose: 12.5 mg/kg/injection, schedule: Q01DX005 (ip), vehicle: Klucel (hydroxypropylcellulose) (HPC) 110 % of control | dose: 25.0 mg/kg/injection, schedule: Q01DX005 (ip), vehicle: Klucel (hydroxypropylcellulose) (HPC) 101 % of control

Cc1cc(=O)n2[nH]cnc2n1
inactive: dose: 12.5 mg/kg/injection, schedule: Q01DX009 (ip), vehicle: Klucel (hydroxypropylcellulose) (HPC) 97 % of control | dose: 25.0 mg/kg/injection, schedule: Q01DX009 (ip), vehicle: Klucel (hydroxypropylcellulose) (HPC) 109 % of control and 110 % of control and 98 % of control | [3] 99 % of control and 107 % of control and 109 % of control | dose: 400.0 mg/kg/injection, schedule: Q01DX009 (ip), vehicle: Klucel (hydroxypropylcellulose) (HPC) 104 % of control and 119 % of control

O=[N+]([O-])CC(OCCCCCO)C(Cl)(Cl)Cl (configuration not stated)
inactive: [10] 95 % of control | [11] 100 % of control | [12] 86 % of control

O/N=C/C(Cl)(Cl)Cl
inactive: dose: 3.12 mg/kg/injection, schedule: Q01DX009 (ip), vehicle: saline 105 % of control | dose: 6.25 mg/kg/injection, schedule: Q01DX009 (ip), vehicle: saline 109 % of control | dose: 12.5 mg/kg/injection, schedule: Q01DX009 (ip), vehicle: saline 107 % of control and 97 % of control | dose: 25.0 mg/kg/injection, schedule: Q01DX009 (ip), vehicle: saline 100 % of control and 93 % of control

O=C1CCC2=C1C(c1ccc(Cl)c(Cl)c1)C1=C(CCC1=O)O2
inactive: dose: 100.0 mg/kg/injection, schedule: Q01DX001 (ip), vehicle: Klucel (hydroxypropylcellulose) (HPC) 98 % of control | dose: 200.0 mg/kg/injection, schedule: Q01DX001 (ip), vehicle: Klucel (hydroxypropylcellulose) (HPC) 100 % of control | dose: 400.0 mg/kg/injection, schedule: Q01DX001 (ip), vehicle: Klucel (hydroxypropylcellulose) (HPC) 102 % of control

NC(=O)c1cncc(C(=O)O)c1
inactive: [4] 106 % of control | [5] 101 % of control | [6] 100 % of control
